Biological target: Avi-humanTEAD4 217-434 / Cy5 labeled humanYAP 60-100 (Homo sapiens (Human), UniProt Q15561)
Experiment: TR-FRET YAP-TEAD4 in-vitro biochemical assay
Type: binding
Details: 1 nM Avi-humanTEAD4 217-434, 20 nM Cy5-humanYAP 60-100, 1 h room temperature
Procedure: N-terminus Cy5 labeled humanYAP^60-100 (20 nM) was then added to this preparation. Compounds were dissolved at 10 mM in 100% DMSO and serial dilutions were made in 100% DMSO. The diluted compound solutions were incubated in white 384-well plates (Greiner Bio-One) for 1 h at room temperature with the above described mix. The final DMSO concentration present in the assay was 1%. […] The IC50 values were estimated by fitting the data by nonlinear fit regression (GraphPad Prism).

Chain of Avi-humanTEAD4 217-434 / Cy5 labeled humanYAP 60-100 (Q15561 217-434): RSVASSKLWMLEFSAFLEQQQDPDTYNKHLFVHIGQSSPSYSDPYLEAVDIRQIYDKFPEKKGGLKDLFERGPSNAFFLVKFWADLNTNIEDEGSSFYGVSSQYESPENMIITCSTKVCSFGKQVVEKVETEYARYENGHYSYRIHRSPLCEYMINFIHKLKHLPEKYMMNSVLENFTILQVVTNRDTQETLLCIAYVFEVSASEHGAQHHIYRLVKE

Row | IC50 [nM] | Compound
1 | 9 | COc1ccc(C(N)=O)c(-c2c(Cl)ccc3c2[C@H](O)[C@@](CN)(c2ccccc2OC(F)(F)F)O3)c1F (atropisomer, axis not shown) [Example 93, 2-((2S,3S,4S)-2-(Aminomethyl)-5-chloro-3-hydroxy-2-(2-(trifluoromethoxy)phenyl)-2,3-dihydrobenzofuran-4-yl)-3-fluoro-4-methoxybenzamide]
2 | 5 | NC[C@]1(c2ccccc2)Oc2cc(F)c(Cl)c(-c3c(C(N)=O)ccc(OCCO)c3F)c2[C@@H]1O (atropisomer, axis not shown) [Example 98, 2-((2S,3S,4S)-2-(Aminomethyl)-5-chloro-6-fluoro-3-hydroxy-2-phenyl-2,3-dihydrobenzofuran-4-yl)-3-fluoro-4-(2-hydroxyethoxy)benzamide]
3 | 2 | C[C@H]1c2c(cc(F)c(Cl)c2-c2c(C(N)=O)ccc(OC(F)F)c2F)O[C@]1(CN)c1ccccc1 (atropisomer, axis not shown) [Example 105, 2-((2S,3S,4S)-2-(Aminomethyl)-5-chloro-6-fluoro-3-methyl-2-phenyl-2,3-dihydrobenzofuran-4-yl)-4-(difluoromethoxy)-3-fluorobenzamide]
4 | 2 | C[C@H]1c2c(cc(F)c(Cl)c2-c2c(C(N)=O)ccc(OCCO)c2F)O[C@]1(CN)c1ccccc1 (atropisomer, axis not shown) [Example 107, 2-((2S,3S,4S)-2-(aminomethyl)-5-chloro-6-fluoro-3-methyl-2-phenyl-2,3-dihydrobenzofuran-4-yl)-3-fluoro-4-(2-hydroxyethoxy)benzamide]
5 | 2 | COCCOc1ncc(C(N)=O)c(-c2c(Cl)c(F)cc3c2[C@H](C)[C@@](CN)(c2ccccc2)O3)c1F (atropisomer, axis not shown) [Example 108, 4-((2S,3S,4S)-2-(aminomethyl)-5-chloro-6-fluoro-3-methyl-2-phenyl-2,3-dihydrobenzofuran-4-yl)-5-fluoro-6-(2-methoxyethoxy)nicotinamide]
6 | 4 | CNC[C@]1(c2ccccn2)Oc2cc(F)c(Cl)c(-c3c(C(N)=O)ccc(OCCOC)c3F)c2[C@@H]1C (atropisomer, axis not shown) [Example 111, 2-((2R,3S,4S)-5-chloro-6-fluoro-3-methyl-2-((methylamino)methyl)-2-(pyridin-2-yl)-2,3-dihydrobenzofuran-4-yl)-3-fluoro-4-(2-methoxyethoxy)benzamide]
7 | 1 | CNC[C@]1(c2ccccn2)Oc2cc(F)c(Cl)c(-c3c(C(N)=O)ccc(OCCO)c3F)c2[C@@H]1C (atropisomer, axis not shown) [Example 112, 2-((2R,3S,4S)-5-chloro-6-fluoro-3-methyl-2-((methylamino)methyl)-2-(pyridin-2-yl)-2,3-dihydrobenzofuran-4-yl)-3-fluoro-4-(2-hydroxyethoxy)benzamide]
8 | 2 | C[C@H]1c2c(cc(F)c(Cl)c2-c2c(C(N)=O)ccc(OC(F)F)c2F)O[C@]1(CN[C@H]1CC[C@H](O)CC1)c1ccccc1 (atropisomer, axis not shown) [Example 115a, 2-((2S,3S,4S)-5-chloro-6-fluoro-2-((((trans)-4-hydroxycyclohexyl)amino)methyl)-3-methyl-2-phenyl-2,3-dihydrobenzofuran-4-yl)-4-(difluoromethoxy)-3-fluorobenzamide]
9 | 2 | C[C@H]1c2c(cc(F)c(Cl)c2-c2c(C(N)=O)ccc(OC(F)F)c2F)O[C@]1(CN[C@H]1CC[C@@H](O)CC1)c1ccccc1 (atropisomer, axis not shown) [Example 115b, 2-((2S,3S,4S)-5-chloro-6-fluoro-2-((((cis)-4-hydroxycyclohexyl)amino)methyl)-3-methyl-2-phenyl-2,3-dihydrobenzofuran-4-yl)-4-(difluoromethoxy)-3-fluorobenzamide]
10 | < 1 | COCCOc1ccc(C(N)=O)c(-c2c(Cl)c(F)cc3c2[C@H](C)[C@@](CN[C@H]2CC[C@](C)(O)CC2)(c2ccccc2)O3)c1F (atropisomer, axis not shown) [Example 116a, 2-((25,35,4S)-5-chioro-6-fluoro-2-((((trans)-4-hydroxy-4-methylcyclohexyl)amino)methyl)-3-methyl-2-phenyl-2,3-dihydrobenzofuran-4-yl)-3-fluoro-4-(2-methoxyethoxy)benzamide]
11 | 1 | COCCOc1ccc(C(N)=O)c(-c2c(Cl)c(F)cc3c2[C@H](C)[C@@](CN[C@H]2CC[C@@](C)(O)CC2)(c2ccccc2)O3)c1F (atropisomer, axis not shown) [Example 116b, 2-((2S,3S,4S)-5-chloro-6-fluoro-2-((((cis)-4-hydroxy-4-methylcyclohexyl)amino)methyl)-3-methyl-2-phenyl-2,3-dihydrobenzofuran-4-yl)-3-fluoro-4-(2-methoxyethoxy)benzamide]
12 | 1290 | NC[C@@]1(c2ccccc2)Cc2c(ncc(Cl)c2-c2c(F)cccc2C(N)=O)O1 (atropisomer, axis not shown) [Example 131, 2-((2S,4S)-2-(Aminomethyl)-5-chloro-2-phenyl-2,3-dihydrofuro[2,3-b]pyridin-4-yl)-3-fluorobenzamide]
13 | 8 | COc1ccc(C(N)=O)c(-c2c(Cl)ccc3c2[C@H](O)[C@@](CN[C@H]2CC[C@H](O)CC2)(c2ccccn2)O3)c1F (relative stereo) [Example 95a, 2-((2R,3S,4S)-5-Chloro-3-hydroxy-2-((((trans)-4-hydroxycyclohexyl)amino)methyl)-2-(pyridin-2-yl)-2,3-dihydrobenzofuran-4-yl)-3-fluoro-4-methoxybenzamide]
14 | 7 | COc1ccc(C(N)=O)c(-c2c(Cl)ccc3c2[C@H](O)[C@@](CN[C@H]2CC[C@@H](O)CC2)(c2ccccn2)O3)c1F (relative stereo) [Example 95b, 2-((2R,3S,4S)-5-chloro-3-hydroxy-2-((((cis)-4-hydroxycyclohexyl)amino)methyl)-2-(pyridin-2-yl)-2,3-dihydrobenzofuran-4-yl)-3-fluoro-4-methoxybenzamide]
15 | 2 | NC(=O)c1ccc(OC(F)F)c(F)c1-c1c(Cl)c(F)cc2c1[C@H](O)[C@@](CN[C@H]1CC[C@H](O)CC1)(c1ccccc1)O2 (relative stereo) [Example 100a, 2-((2S,3S,4S)-5-Chloro-6-fluoro-3-hydroxy-2-((((trans)-4-hydroxycyclohexyl)amino)methyl)-2-phenyl-2,3-dihydrobenzofuran-4-yl)-4-(difluoromethoxy)-3-fluorobenzamide]
16 | 5 | NC(=O)c1ccc(OC(F)F)c(F)c1-c1c(Cl)c(F)cc2c1[C@H](O)[C@@](CN[C@H]1CC[C@@H](O)CC1)(c1ccccc1)O2 (relative stereo) [Example 100b, 2-((2S,3S,4S)-5-chloro-6-fluoro-3-hydroxy-2-((((cis)-4-hydroxycyclohexyl)amino)methyl)-2-phenyl-2,3-dihydrobenzofuran-4-yl)-4-(difluoromethoxy)-3-fluorobenzamide]
17 | 3 | CO[C@H]1c2c(cc(F)c(Cl)c2-c2c(C(N)=O)ccc(OC(F)F)c2F)O[C@]1(CN[C@H]1CC[C@H](O)CC1)c1ccccc1 (relative stereo) [Example 102a, 2-((2S,3S,4S)-5-Chloro-6-fluoro-2-((((trans)-4-hydroxycyclohexyl)amino)methyl)-3-methoxy-2-phenyl-2,3-dihydrobenzofuran-4-yl)-4-(difluoromethoxy)-3-fluorobenzamide]
18 | 4 | CO[C@H]1c2c(cc(F)c(Cl)c2-c2c(C(N)=O)ccc(OC(F)F)c2F)O[C@]1(CN[C@H]1CC[C@@H](O)CC1)c1ccccc1 (relative stereo) [Example 102b, 2-((2S,3S,4S)-5-chloro-6-fluoro-2-((((cis)-4-hydroxycyclohexyl)amino)methyl)-3-methoxy-2-phenyl-2,3-dihydrobenzofuran-4-yl)-4-(difluoromethoxy)-3-fluorobenzamide]
19 | 7 | CO[C@H]1CC[C@@H](NC[C@]2(c3ccccc3)Oc3cc(F)c(Cl)c(-c4c(C(N)=O)ccc(OC(F)F)c4F)c3[C@@H]2O)CC1 (relative stereo) [Example 136a, 2-((2S,3S,4S)-5-Chloro-6-fluoro-3-hydroxy-2-((((cis)-4-methoxycyclohexyl)amino)methyl)-2-phenyl-2,3-dihydrobenzofuran-4-yl)-4-(difluoromethoxy)-3-fluorobenzamide]
20 | 7 | CO[C@H]1CC[C@H](NC[C@]2(c3ccccc3)Oc3cc(F)c(Cl)c(-c4c(C(N)=O)ccc(OC(F)F)c4F)c3[C@@H]2O)CC1 (relative stereo) [Example 136b, 2-((2S,3S,4S)-5-chloro-6-fluoro-3-hydroxy-2-((((trans)-4-methoxycyclohexyl)amino)methyl)-2-phenyl-2,3-dihydrobenzofuran-4-yl)-4-(difluoromethoxy)-3-fluorobenzamide]
21 | 5 | COC(=O)[C@H]1CC[C@@H](NC[C@@]2(c3ccccc3)Cc3c(ccc(Cl)c3-c3c(C(N)=O)ccc(F)c3F)O2)CC1 (relative stereo) [Example 137a, Methyl (cis)-4-((((2S,4S)-4-(6-carbamoyl-2,3-difluorophenyl)-5-chloro-2-phenyl-2,3-dihydrobenzofuran-2-yl)methyl)amino)cyclohexane-1-carboxylate]
22 | 6 | COC(=O)[C@H]1CC[C@H](NC[C@@]2(c3ccccc3)Cc3c(ccc(Cl)c3-c3c(C(N)=O)ccc(F)c3F)O2)CC1 (relative stereo) [Example 137b, methyl (trans)-4-((((2S,4S)-4-(6-carbamoyl-2,3-difluorophenyl)-5-chloro-2-phenyl-2,3-dihydrobenzofuran-2-yl)methyl)amino)cyclohexane-1-carboxylate]
